From article PMC9837035 (Nature Communications, 2023)
Like-named read-outs stand apart in the source and are kept apart here.

Assays:
PRDM9 = biological target: T1, PRDM9 (Homo sapiens, UniProt Q9NQV7); test: Radioisotope-based methyltransferase assay (selectivity); format: biochemical; conditions: read-out: IC50
T1 construct: purchased Reaction Biology

PRMT4 = biological target: T2, PRMT4 (Homo sapiens, UniProt Q86X55); test: as above; format: biochemical
T2 construct: purchased Reaction Biology

[1] = test system: CHD3 and CHD4 occupancy at the BGLT3 gene locus; test: ChIP-qPCR with antibodies against CHD3 or CHD4 in HUDEP-2 cells; format: cell-based, human; conditions: HUDEP-2, 1 μM, 4 days
Method: A total of 0.5–1 × 10^6 cells were cross-linked with 1% formaldehyde for 10 min at room temperature and the reaction was quenched with 250 mM glycine. Cross-linked cells were then lysed with buffer 1 (15 mM Tris-HCl (pH 7.5), 60 mM KCl, 15 mM NaCl, 5 mM MgCl2, 0.1 mM EGTA, 300 mM sucrose, […], 1 mM phenylmethanesulfonyl fluoride (PMSF), 0.5% NP40) and incubated on ice for 10 min. After centrifugation, the pellet was re-suspended in buffer 2 (15 mM Tris-HCl (pH 7.5), 60 mM KCl, 15 mM NaCl, 5 mM MgCl2, 0.1 mM EGTA, 1.2 M sucrose, […], 1 mM PMSF). After centrifugation, the pellet was then re-suspended in MNase buffer (50 mM Tris-HCl (pH 7.5), 1 mM CaCl2, 4 mM MgCl2, 320 mM sucrose, 1 mM PMSF) and digested with 100 U of micrococcal nuclease (Takara) at 37 °C for 15 min. […] The samples were analyzed by qPCR. […] ChIP-seq analysis were analyzed Cutadapt (V1.9.1) for QC, FastQC (V0.10.1) for QC assessment, Bowtie (V2.1.0) for mapping, strand cross-correlation (SCC) for ChIP quality assessment, MACS2 for peak calling, and R package ChIPpeakAnno for Peak annotated.

[2] = test system: H3K9me2 in peripheral blood; test: H3K9me2 levels in peripheral blood of treated mice; format: in vivo
Method: Preparation of cell lysates and western blotting were performed as described previously. Protein from cells lysates in lysis buffer (50 mM Tris-HCl (pH 7.5), 150 mM NaCl, 5 mM EDTA, 0.1% NP-40, 1 mM dithiothreitol) were separated by sodium dodecyl sulfate–polyacrylamide gel electrophoresis (SDS-PAGE) and transferred to a polyvinylidene difluoride (PVDF) membrane (Millipore) by electroblotting. The membranes incubated with primary antibodies overnight at 4 °C and secondary antibodies for 1 h at room temperature. The immune complexes were detected with the Immobilon Western Chemiluminescent HRP Substrate (Millipore). Luminescence was analyzed on a FUSION SOLO S (Vilber). Western blot bands were visualized using Evolution Capt software (M&S Instruments Inc.). Primary antibodies used were anti-G9a (1:1000, CST, #3306), anti–α-tubulin (1:5000, Abcam, ab18251), anti-H3K9me2 (1:3000, Abcam, ab1220), anti-H3 (1:5000, Abcam, ab1791), anti-H3K27me3 (1:3000, Sigma, 07-449), anti-GLP (1:1000, CST, #35005), anti-FLAG (100 ng/ml, Fujifilm, 01422383), anti-His (1:5000, MBL, PM032), anti-BCL11A (1:1000, abcam, ab19487), anti-ZBTB7A (1:1000, CST, #50565), anti-CHD3 (1:1000, Novus Biologicals, NB100-60412), and anti-CHD4 (1:1000, abcam, ab240640). […]
The dosing solution contained 15% DMSO, 17.5% Cremophor EL, 8.75% EtOH, 8.75% HCO-40, and 50% PBS. […] The weight of each mouse was measured every 3 or 4 days.

NSD2 (T1150A) = NSD2 (T1150A) (Homo sapiens, UniProt O96028, T1150A)
PRMT7 = PRMT7 (Homo sapiens, UniProt Q9NVM4)
EZH2 (Y641F) = EZH2 (Y641F) (Homo sapiens, UniProt Q15910, Y641F); test: biochemical
PRMT8 = PRMT8 (Homo sapiens, UniProt Q9NR22); test: biochemical
DNMT1 = DNMT1 (Homo sapiens, UniProt P26358); test: Radioisotope-based methyltransferase assay (selectivity); conditions: IC50, DNMT1, 1 μM SAM
DNMT1, sequence (P26358 whole entry): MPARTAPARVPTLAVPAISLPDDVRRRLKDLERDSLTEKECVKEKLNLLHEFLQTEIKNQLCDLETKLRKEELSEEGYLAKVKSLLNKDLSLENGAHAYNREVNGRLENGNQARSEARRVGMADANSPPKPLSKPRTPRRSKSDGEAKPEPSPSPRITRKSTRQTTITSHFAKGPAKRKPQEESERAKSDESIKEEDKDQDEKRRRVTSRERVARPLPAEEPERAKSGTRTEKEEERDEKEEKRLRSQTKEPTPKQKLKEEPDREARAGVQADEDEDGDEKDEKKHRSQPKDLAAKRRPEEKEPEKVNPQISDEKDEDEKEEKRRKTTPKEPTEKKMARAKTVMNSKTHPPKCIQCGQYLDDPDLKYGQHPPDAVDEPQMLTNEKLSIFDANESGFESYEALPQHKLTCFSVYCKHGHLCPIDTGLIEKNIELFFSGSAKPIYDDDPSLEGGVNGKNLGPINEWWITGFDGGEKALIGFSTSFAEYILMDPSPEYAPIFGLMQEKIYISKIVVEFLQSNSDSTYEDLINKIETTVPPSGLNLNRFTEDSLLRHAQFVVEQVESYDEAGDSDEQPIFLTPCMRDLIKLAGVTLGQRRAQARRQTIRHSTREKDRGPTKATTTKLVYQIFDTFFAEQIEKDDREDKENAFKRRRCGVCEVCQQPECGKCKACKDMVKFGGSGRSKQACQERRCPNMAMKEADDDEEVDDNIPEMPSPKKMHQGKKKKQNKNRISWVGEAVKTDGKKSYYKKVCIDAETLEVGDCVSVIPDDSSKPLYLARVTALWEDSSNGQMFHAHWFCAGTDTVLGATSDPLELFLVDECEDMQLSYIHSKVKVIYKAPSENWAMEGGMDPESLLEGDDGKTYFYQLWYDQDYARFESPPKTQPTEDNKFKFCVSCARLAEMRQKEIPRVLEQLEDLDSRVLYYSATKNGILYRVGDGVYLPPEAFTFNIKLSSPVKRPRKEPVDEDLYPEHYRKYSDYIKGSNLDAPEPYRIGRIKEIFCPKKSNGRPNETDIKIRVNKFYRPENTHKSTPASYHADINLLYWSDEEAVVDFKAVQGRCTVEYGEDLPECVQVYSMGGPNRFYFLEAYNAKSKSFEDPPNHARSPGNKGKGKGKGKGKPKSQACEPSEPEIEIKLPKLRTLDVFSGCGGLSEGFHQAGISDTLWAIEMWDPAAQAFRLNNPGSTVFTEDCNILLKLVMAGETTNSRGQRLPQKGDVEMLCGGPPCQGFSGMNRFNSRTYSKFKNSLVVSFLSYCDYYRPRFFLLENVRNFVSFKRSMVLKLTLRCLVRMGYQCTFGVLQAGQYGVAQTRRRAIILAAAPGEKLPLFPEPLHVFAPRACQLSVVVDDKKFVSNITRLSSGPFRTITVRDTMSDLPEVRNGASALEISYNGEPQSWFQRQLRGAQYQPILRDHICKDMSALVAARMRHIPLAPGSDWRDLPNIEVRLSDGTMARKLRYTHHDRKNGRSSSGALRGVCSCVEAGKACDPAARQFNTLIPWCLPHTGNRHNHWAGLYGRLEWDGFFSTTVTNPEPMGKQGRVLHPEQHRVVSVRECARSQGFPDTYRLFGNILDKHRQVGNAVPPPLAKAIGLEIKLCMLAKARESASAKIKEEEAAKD

T2 sequence (Q86X55 whole entry): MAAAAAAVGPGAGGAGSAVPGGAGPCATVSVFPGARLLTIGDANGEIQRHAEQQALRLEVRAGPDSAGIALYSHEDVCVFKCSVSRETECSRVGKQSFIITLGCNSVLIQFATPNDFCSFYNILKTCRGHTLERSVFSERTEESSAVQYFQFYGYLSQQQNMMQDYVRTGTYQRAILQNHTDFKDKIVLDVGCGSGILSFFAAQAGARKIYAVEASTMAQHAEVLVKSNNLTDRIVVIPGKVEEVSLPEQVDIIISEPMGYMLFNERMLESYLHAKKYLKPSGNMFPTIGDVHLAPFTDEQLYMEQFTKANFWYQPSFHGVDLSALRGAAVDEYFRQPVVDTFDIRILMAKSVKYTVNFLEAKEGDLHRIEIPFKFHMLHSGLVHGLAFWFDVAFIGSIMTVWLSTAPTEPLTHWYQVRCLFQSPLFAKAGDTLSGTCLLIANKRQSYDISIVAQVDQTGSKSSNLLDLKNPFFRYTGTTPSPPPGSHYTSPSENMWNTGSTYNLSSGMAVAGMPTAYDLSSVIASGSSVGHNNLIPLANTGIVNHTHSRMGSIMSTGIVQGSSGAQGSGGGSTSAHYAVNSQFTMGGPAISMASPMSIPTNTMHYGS
T1 sequence (Q9NQV7 whole entry): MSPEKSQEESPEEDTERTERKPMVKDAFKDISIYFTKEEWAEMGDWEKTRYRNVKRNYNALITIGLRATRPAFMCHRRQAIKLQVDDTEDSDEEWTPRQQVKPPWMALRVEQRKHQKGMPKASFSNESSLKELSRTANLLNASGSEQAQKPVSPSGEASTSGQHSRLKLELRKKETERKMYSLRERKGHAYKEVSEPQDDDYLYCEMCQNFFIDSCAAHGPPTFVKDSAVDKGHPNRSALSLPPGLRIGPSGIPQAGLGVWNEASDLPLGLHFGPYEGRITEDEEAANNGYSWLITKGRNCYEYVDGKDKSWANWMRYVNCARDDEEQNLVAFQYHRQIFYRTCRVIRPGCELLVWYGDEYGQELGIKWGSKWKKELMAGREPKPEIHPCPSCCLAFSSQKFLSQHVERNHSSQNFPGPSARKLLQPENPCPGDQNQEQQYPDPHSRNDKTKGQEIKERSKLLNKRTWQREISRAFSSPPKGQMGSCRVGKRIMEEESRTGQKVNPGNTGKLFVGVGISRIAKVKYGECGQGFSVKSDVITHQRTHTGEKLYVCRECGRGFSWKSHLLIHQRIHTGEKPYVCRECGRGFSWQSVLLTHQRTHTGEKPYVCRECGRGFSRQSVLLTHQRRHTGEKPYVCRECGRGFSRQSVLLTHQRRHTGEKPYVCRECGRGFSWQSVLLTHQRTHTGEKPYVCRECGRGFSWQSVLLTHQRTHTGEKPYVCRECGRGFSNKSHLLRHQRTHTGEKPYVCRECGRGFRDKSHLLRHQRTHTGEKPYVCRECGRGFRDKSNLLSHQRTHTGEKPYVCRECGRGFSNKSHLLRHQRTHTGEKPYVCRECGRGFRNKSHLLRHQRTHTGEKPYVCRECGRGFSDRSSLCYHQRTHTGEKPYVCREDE
PRMT8, sequence (Q9NR22 whole entry): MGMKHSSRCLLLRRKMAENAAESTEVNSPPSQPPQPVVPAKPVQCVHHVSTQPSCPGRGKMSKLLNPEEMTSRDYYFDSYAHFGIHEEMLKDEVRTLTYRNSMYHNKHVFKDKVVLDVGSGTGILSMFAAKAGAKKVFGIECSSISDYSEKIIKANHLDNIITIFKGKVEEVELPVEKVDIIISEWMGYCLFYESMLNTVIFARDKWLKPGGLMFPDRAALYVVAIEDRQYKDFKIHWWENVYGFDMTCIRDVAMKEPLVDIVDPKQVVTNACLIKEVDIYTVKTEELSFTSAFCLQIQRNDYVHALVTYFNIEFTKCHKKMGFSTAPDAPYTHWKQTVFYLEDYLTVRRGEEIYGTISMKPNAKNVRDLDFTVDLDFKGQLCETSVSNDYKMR
PRMT7, sequence (Q9NVM4 whole entry): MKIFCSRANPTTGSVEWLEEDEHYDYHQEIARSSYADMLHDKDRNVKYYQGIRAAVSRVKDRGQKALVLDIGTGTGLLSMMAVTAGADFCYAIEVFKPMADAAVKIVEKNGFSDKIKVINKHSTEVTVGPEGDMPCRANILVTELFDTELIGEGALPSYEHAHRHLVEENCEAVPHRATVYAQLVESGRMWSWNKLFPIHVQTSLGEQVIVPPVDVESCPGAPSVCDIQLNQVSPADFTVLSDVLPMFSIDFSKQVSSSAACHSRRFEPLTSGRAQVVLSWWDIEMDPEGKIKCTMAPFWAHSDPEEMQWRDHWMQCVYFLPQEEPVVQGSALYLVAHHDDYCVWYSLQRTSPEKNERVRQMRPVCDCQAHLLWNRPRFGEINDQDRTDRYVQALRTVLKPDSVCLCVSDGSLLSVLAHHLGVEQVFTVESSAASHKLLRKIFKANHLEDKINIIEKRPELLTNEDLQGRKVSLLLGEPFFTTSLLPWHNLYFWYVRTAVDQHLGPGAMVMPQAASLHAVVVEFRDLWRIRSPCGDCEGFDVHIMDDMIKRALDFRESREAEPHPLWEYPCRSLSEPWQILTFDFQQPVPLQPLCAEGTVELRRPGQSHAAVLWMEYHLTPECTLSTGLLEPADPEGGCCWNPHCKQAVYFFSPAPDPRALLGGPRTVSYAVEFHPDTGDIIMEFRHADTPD

Cc1c(C(=O)NC(CCC2CC2)C(=O)Nc2ccc(C#N)cc2)[nH]c2c1C(=O)CC(C)(C)C2 (centres unmarked) [RK-701] was tested. Which IC50 (PRDM9; PRDM9, 1 μM SAM) did it give?
The IC50 was > 100 µM.

And the IC50 (PRDM9; PRDM9, RK-701 in duplicate)?
The IC50 was > 100 µM.

And the IC50 (PRMT4; PRMT4, 1 μM SAM)?
The IC50 was > 100 µM.

What about the IC50 (PRMT4; PRMT4, RK-701 in duplicate) of the same compound?
The IC50 was > 100 µM.

And the “occupancy of CHD4 on the BGLT3 gene locus” value [1]?
The value was “significantly decreased”.

And the “H3K9me2 levels in peripheral blood cells” value [2]?
The value was “significant decrease”.

And the IC50 (NSD2 (T1150A))?
Its IC50 is > 100 µM.

And the IC50 (PRMT7)?
Its IC50 is > 100 µM.

And the IC50 (EZH2 (Y641F))?
Its IC50 is > 100 µM.

What about the IC50 (PRMT8) of the same compound?
The IC50 was > 100 µM.

And the IC50 (DNMT1)?
The IC50 was > 100 µM.
